Paper PMC8951032, “Study of Biological Activities and ADMET-Related Properties of Novel Chlorinated N-arylcinnamamides” (International Journal of Molecular Sciences, 2022)

Test: Lipophilicity determination by RP-HPLC (log k, log D)
Format: physicochemical
Conditions: for log k: MeOH 72%/H2O 28%; for log D6.5: MeOH 72%/acetate buffered saline pH 6.5; for log D7.4: MeOH 72%/acetate buffered saline pH 7.4
Description: In addition to the mentioned ADME profile, it is responsible for interactions with biological targets. Lipophilicity is recognized as one of the most important parameters influencing ADME and bioactivity and is also part, e.g., of Lipinski’s Rule of Five (Ro5). This thermodynamic parameter describing the molecule’s affinity for an aqueous or relatively lipophilic environment can be characterized by the logarithm of the partition coefficient (log P). In this study, lipophilicity was measured by reversed-phase high-performance liquid chromatography (RP-HPLC) under isocratic conditions with methanol as the organic modifier in the aqueous mobile phase and the logarithm of the capacity factor k was calculated, which is used as the lipophilicity index converted to the log P scale. In addition to the log k values, the logarithm of the distribution coefficient DpH at pH 6.5 and 7.4 was determined to clarify the behavior of the compounds under physiological conditions and possible ionization. Instead of water, a buffer of suitable pH was used as part of the mobile phase. In addition to the above-mentioned experimental methods, commercially available ChemBioDraw Ultra 13.0 and ACD/Percepta ver. 2012 programs were used to calculate the lipophilicity values of all prepared compounds.
A HPLC separation module Waters Alliance 2695 XE equipped with a Waters Dual Absorbance Detector 2486 (Waters Corp., Milford, MA, USA) was used. A chromatographic column Symmetry® C18 5 μm, 4.6 × 250 mm, Part No. W21751W016 (Waters Corp., Milford, MA, USA) was used. The HPLC separation process was monitored by Empower® 3 Chromatography Manager Software (Waters Corp.). Isocratic elution by a mixture of MeOH p.a. (72%) and H2O-HPLC Mili-Q grade (28%) as a mobile phase was used for the determination of capacity factor k. Isocratic elution by a mixture of MeOH p.a. (72%) and acetate buffered saline (pH 7.4 and pH 6.5) (28%) as a mobile phase was used for the determination of distribution coefficient expressed as D7.4 and D6.5. The total flow of the column was 1.0 mL/min, injection 20 μL, column temperature 40 °C, and sample temperature 10 °C. The detection wavelength of 210 nm was chosen. A KI methanolic solution was used for the determination of the dead times (tD). Retention times (tR) were measured in minutes. The capacity factors k were calculated according to the formula k = (tR − tD)/tD, where tR is the retention time of the solute, and tD is the dead time obtained using an unretained analyte. The distribution coefficients DpH were calculated according to the formula DpH = (tR − tD)/tD. Each experiment was repeated three times.

SMILES	log k	log D6.5	log D7.4
O=C(/C=C/c1ccc(Cl)cc1)Nc1ccccc1F [1b, (2E)-3-(4-Chlorophenyl)-N-(2-fluorophenyl)prop-2-enamide]	0.6459	0.5908	0.5965
O=C(/C=C/c1ccc(Cl)cc1)Nc1ccc(F)cc1 [1d, (2E)-3-(4-Chlorophenyl)-N-(4-fluorophenyl)prop-2-enamide]	0.7808	0.7252	0.7290
O=C(/C=C/c1ccc(Cl)cc1)Nc1ccccc1C(F)(F)F [1h, (2E)-3-(4-Chlorophenyl)-N-[2-(trifluoromethyl)phenyl]prop-2-enamide]	0.5506	0.4938	0.5010
O=C(/C=C/c1ccc(Cl)cc1)Nc1ccc(C(F)(F)F)cc1 [1j, (2E)-3-(4-Chlorophenyl)-N-[4-(trifluoromethyl)phenyl]prop-2-enamide]	0.9078	0.8541	0.8560
O=C(/C=C/c1ccc(Cl)cc1)Nc1ccc(OC(F)(F)F)cc1 [1k, (2E)-3-(4-Chlorophenyl)-N-[4-(trifluoromethoxy)phenyl]prop-2-enamide]	0.8759	0.8702	0.8754
O=C(/C=C/c1ccc(Cl)cc1)Nc1ccc(F)cc1F [1l, (2E)-3-(4-Chlorophenyl)-N-(2,4-difluorophenyl)prop-2-enamide]	0.5746	0.5172	0.5223
O=C(/C=C/c1ccc(Cl)cc1)Nc1cc(F)cc(F)c1 [1m, (2E)-3-(4-Chlorophenyl)-N-(3,5-difluorophenyl)prop-2-enamide]	0.8054	0.7502	0.7537
O=C(/C=C/c1ccc(Cl)c(Cl)c1)Nc1ccccc1F [2b, (2E)-N-(2-Fluorophenyl)-3-(3,4-dichlorophenyl)prop-2-enamide]	0.7764	0.8203	0.8019
O=C(/C=C/c1ccc(Cl)c(Cl)c1)Nc1cccc(F)c1 [2c, (2E)-N-(3-Fluorophenyl)-3-(3,4-dichlorophenyl)prop-2-enamide]	0.9071	0.9453	0.8735

Now from value to compound:

log k	log D6.5	log D7.4	SMILES
0.4490	0.4428	0.4515	O=C(/C=C/c1ccc(Cl)cc1)Nc1ccccc1 [1a, (2E)-3-(4-Chlorophenyl)-N-phenylprop-2-enamide]
0.7859	0.7296	0.7325	O=C(/C=C/c1ccc(Cl)cc1)Nc1cccc(F)c1 [1c, (2E)-3-(4-Chlorophenyl)-N-(3-fluorophenyl)prop-2-enamide]
0.5241	0.4650	0.4724	O=C(/C=C/c1ccc(Cl)cc1)Nc1ccccc1Cl [1e, (2E)-N-(2-Chlorophenyl)-3-(4-chlorophenyl)prop-2-enamide]
0.6192	0.5603	0.5666	O=C(/C=C/c1ccc(Cl)cc1)Nc1cccc(Cl)c1 [1f, (2E)-N-(3-Chlorophenyl)-3-(4-chlorophenyl)prop-2-enamide]
0.5598	0.5012	0.5065	O=C(/C=C/c1ccc(Cl)cc1)Nc1ccc(Cl)cc1 [1g, (2E)-N,3-bis(4-Chlorophenyl)prop-2-enamide]
0.9665	0.9141	0.9170	O=C(/C=C/c1ccc(Cl)cc1)Nc1ccc(Cl)cc1Cl [1n, (2E)-3-(4-Chlorophenyl)-N-(2,4-dichlorophenyl)prop-2-enamide]
0.9507	0.8986	0.9010	O=C(/C=C/c1ccc(Cl)cc1)Nc1cc(Cl)ccc1Cl [1o, (2E)-3-(4-Chlorophenyl)-N-(2,5-dichlorophenyl)prop-2-enamide]
